Test results from publication PMC4161306, “Regulation of Arabidopsis Flowering by the Histone Mark Readers MRG1/2 via Interaction with CONSTANS to Modulate FT Expression” (PLoS Genetics, 2014).

Tests used:
[1] = system: chromodomain of MRG1 (His-MRG1N); experiment: Dot-blot / pull-down binding assay, His-MRG1N with methylated H3 peptides; set-up: species or system Arabidopsis; details: Figure 1A, N-terminal His-tagged chromodomain, peptides residues 1–21 (K4, K9) or 21–44 (K27, K36)
Description: (§1) For the dot-blot binding assay, MRG1N (1–321, AT4G37280) and MRG2N (1–369, AT1G02740) cDNA were amplified by primers MRG1-1/MRG1-2 and MRG2-1/MRG2-2, respectively, and cloned into a pET-30a vector (Novagen, www.novagen.com). Site mutation was generated using a Takara MutanBEST Kit (http://www.takara-bio.com) with primers MRG2-3/MRG2-4. The in vitro binding assay of the chromodomain containing proteins with the histone peptides were performed as described previously. Methylated H3K4 (H3K4me1/2/3, residues 1–21), H3K9 (H3K9me1/2/3, residues 1–21), H3K27 (H3K27me1/2/3, residues 21–44), and H3K36 (H3K36me1/2/3, residues 21–44) peptides were synthesized by Scilight Biotechnology (http://www.scilight-peptide.com). Anti-monomethyl-H3K4 (07-436), anti-dimethyl-H3K4 (07-030), anti-trimethyl-H3K4 (07-473), anti-trimethyl-H3K9 (07-442), and anti-trimethyl-H3K27 (07-449) were purchased from Millipore (http://www.millipore.com), and anti-monomethyl-H3K36 (ab9048), anti-dimethyl-H3K36 (ab9049), and anti-trimethyl-H3K36 (ab9050) were purchased from Abcam (http://www.abcam.com).

[2] = system: chromodomain of MRG2 (His-MRG2N); experiment: Dot-blot / pull-down binding assay, His-MRG2N with methylated H3 peptides; set-up: species or system Arabidopsis; details: Figure 1A, N-terminal His-tagged chromodomain, peptides residues 1–21 (K4, K9) or 21–44 (K27, K36)
Description: as §1

[3] = In vitro peptide pull-down from nuclear extracts with mass spectrometry; format: binding, Arabidopsis; details: biotinylated H3 peptides (amino acids 21 to 44) on streptavidin-coated beads
Description: An in vitro peptide pull-down assay was used to identify the proteins that bind to histone H3 tail methylated at K36. Biotinylated histone H3 peptides (amino acids 21 to 44), with either unmethylated (control) or tri-methylated K36, were immobilized on the streptavidin-coated beads and incubated with Arabidopsis nuclear extracts. […] Members in this group have the same domain organization, with a chromodomain (chromatin organization modifier domain) near the N-terminus, and a MRG domain near the C-terminus (Figure S1). MRG2 has a homolog in Arabidopsis, MRG1, which shares with MRG2 49% identity and 65% similarity at the amino acid sequence level.

EAF3 = details: ref [29]; cited from earlier work
Description: Firstly, via their chromodomain, MRG1/2 proteins act as readers that recognize methylated H3K4 and H3K36.

[4] = system: Y87A substitution in MRG2 chromodomain (His-MRG2N(Y87A)); experiment: Dot-blot binding assay, His-MRG2N(Y87A) with methylated H3 peptides; set-up: species or system Arabidopsis; details: Figure 7B; Tyr87Ala mutation in MRG2
Description: as §1

Substance	binding to chromodomain of MRG1 [1]	binding to chromodomain of MRG2 [2]	protein bound from nuclear extract [3]	binding to EAF3 (EAF3)	association with MRG2 Y87A [4]
mono-methylated H3K4: methylated H3K4 peptide, residues 1–21 (dot-blot)	not				
H3K36me2: methylated H3K36 peptide, residues 21–44 (dot-blot)	could bind	could bind			
H3 peptides tri-methylated at K36: Biotinylated histone H3 peptides (amino acids 21 to 44) with tri-methylated K36			identified MRG2		
H3K4me2: methylated H3K4 peptide, residues 1–21 (dot-blot)	could bind	could bind			
H3K4me3: methylated H3K4 peptide, residues 1–21 (dot-blot), Scilight Biotechnology	could bind	could bind		only very weakly	disrupted its association
H3K36me3: methylated H3K36 peptide, residues 21–44 (dot-blot)	could bind	could bind		bind	disrupted its association
mono-methylated H3K36: methylated H3K36 peptide, residues 21–44 (dot-blot)	not				
